Data taken from paper PMC9147695, “Design, Synthesis, Bioactivity Evaluation, Crystal Structures, and In Silico Studies of New α-Amino Amide Derivatives as Potential Histone Deacetylase 6 Inhibitors” (Molecules, 2022).
Where two headings read alike, the source gives them in different places.

Legend:
RPMI 8226 = assay: Anti-proliferative activity, CTG assay, RPMI 8226 cells; format: cell-based; conditions: for inhibition at 10 µM / inhibition at 50 µM: read-out: Inhibition rate RPMI 8226 (%); for IC50: read-out: RPMI8226 (IC50)
Method: (§1) RPMI 8226 and HL-7702 cells were cultured in RPMI-1640 medium, Hela cells were cultured in MEM medium, and HL-60 cells were cultured in IMDM medium with 1% penicillin–streptomycin solution and 10% FBS, respectively. The above cells were cultured at 37 °C and 5% CO2. After 24 h of cell spreading, 99 μL of medium per well was prepared and 1 μL of the compound prepared solution was added to the wells. Then, the solution was incubated at 37 °C in a 5% CO2 incubator for 72 h. The cell plates to be tested were left at room temperature and 100 μL of medium per well was discarded. Then, 100 μL of CTG reagent was added, placed in a rapid shaker for 2 min, and left at room temperature away from light for 30 min. The chemiluminescence signal was read by an envision multifunctional enzyme marker. The inhibition ratios and IC50 values were calculated using Prism Graph Pad software.

HL-60 = assay: Anti-proliferative activity, CTG assay, HL-60 cells; format: cell-based; conditions: for inhibition at 10 µM / inhibition at 50 µM: read-out: Inhibition rate HL-60 (%)
Method: as §1

Hela = assay: Anti-proliferative activity, CTG assay, Hela cells; format: cell-based; conditions: 72 h; for inhibition at 10 µM / inhibition at 50 µM: read-out: Inhibition rate Hela (%)
Method: as §1

[1] = Cytotoxicity toward human normal liver cells HL-7702, CTG assay; format: cell-based; conditions: human, HL-7702 normal liver cells, read-out: 50% cytotoxic concentration (CC50) HL-7702
Method: as §1

HL-7702 = assay: as above; format: cell-based; conditions: 72 h, read-out: 50% cytotoxic concentration (CC50) HL-7702
Method: as §1

[2] = Homo sapiens, RPMI-8226, 72 h, 10 μM
[3] = Homo sapiens, RPMI-8226, 72 h, 50 μM
[4] = Homo sapiens, HL-60, 72 h, 10 μM
[5] = Homo sapiens, HL-60, 72 h, 50 μM

SMILES	melting point	inhibition at 10 µM (RPMI 8226; [2])	inhibition at 50 µM (RPMI 8226; [3])	inhibition at 10 µM (HL-60; [4])	inhibition at 50 µM (HL-60; [5])	inhibition at 10 µM (Hela; Homo sapiens, HeLa, 10 μM)	inhibition at 50 µM (Hela; Homo sapiens, HeLa, 50 μM)	IC50 (RPMI 8226; Homo sapiens, RPMI-8226, 72 h)	IC50 (HL-60; Homo sapiens, HL-60, 72 h)	CC50 at 72 h [1]	further results
COC(=O)[C@H]1CCCN1S(=O)(=O)c1ccc(-c2ccc(NC(=O)[C@H](C)N)nc2)cc1 [7f, (2R)-1-(4-{6-[(2S)-2-Aminopropionamido]pyridin-3-yl}benzenesulfonyl)pyrrolidine-2-carboxylate Methyl Ester]	146.2 to 148.9 °C	-4.38 ± 0.19%	29.4 ± 5.22%	11.1 ± 0.74%	28.2 ± 0.98%	-2.62 ± 1.36%	21.6 ± 6.65%	–	–	–	–
COC(=O)[C@@H]1CCCN1S(=O)(=O)c1ccc(-c2ccc(NC(=O)[C@H](C)N)nc2)cc1 [13f, (2S)-1-(4-{6-[(2S)-2-Aminopropionamido]pyridin-3-yl}benzenesulfonyl)pyrrolidine-2-carboxylate Methyl Ester]	146.8 to 149.1 °C	12.4 ± 0.52%	89.23 ± 0.24%	13.9 ± 0.73%	99.81 ± 0.12%	-6.37 ± 0.44%	91.57 ± 0.51%	–	–	–	–
COC(=O)[C@H]1CCCN1S(=O)(=O)c1ccc(-c2ccc(NC(=O)CN)nc2)cc1 [7d]	170.2 to 173.5 °C	1.7 ± 0.72%	89.7 ± 1.48%	5.53 ± 1.21%	16.9 ± 1.74%	-5.24 ± 0.18%	41.8 ± 2.62%	–	–	–	–
COC(=O)[C@@H]1CCCN1S(=O)(=O)c1ccc(-c2ccc(NC(=O)[C@@H](C)N)cc2)cc1 [13b, (2S)-1-(4-{4-[(2R)-2-Aminopropionamido]phenyl}benzenesulfonyl)pyrrolidine-2-carboxylate Methyl Ester]	156.4 to 159.1 °C	0.89 ± 3.52%	97.45 ± 0.36%	43.49 ± 0.21%	100.03 ± 0.04%	-4.83 ± 3.13%	62.27 ± 0.57%	25.2 µM	10.3 µM	89.1 µM	IC50 (Hela; Homo sapiens, HeLa): 20.6 µM
COC(=O)C1CCCN1S(=O)(=O)c1ccc(-c2ccc(NC(=O)CN)cc2)cc1 [7a, (2R)-Methyl 1-{4-[4-[4-(2-Aminoacetamido)phenyl]benzenesulfonyl}pyrrolidine-2-carboxylate]	163.4 to 165.3 °C	–	–	–	–	–	–	4.16 µM	10.8 µM	21.1 µM	Inhibition rate RPMI 8226 (%) (RPMI 8226; 10 μM, 72 h): 74.54 ± 1.06%; Inhibition rate RPMI 8226 (%) (RPMI 8226; 50 μM, 72 h): 99.78 ± 0.03%; Inhibition rate HL-60 (%) (HL-60; 10 μM, 72 h): 42.45 ± 1.11%; Inhibition rate HL-60 (%) (HL-60; 50 μM, 72 h): 97.24 ± 0.02%; Inhibition rate Hela (%) (Hela; 10 μM): 98.11 ± 1.33%; Inhibition rate Hela (%) (Hela; 50 μM): 99.84 ± 0.11%; IC50 (Hela): 0.31 µM
COC(=O)[C@@H]1CCCN1S(=O)(=O)c1ccc(-c2ccc(NC(=O)CN)nc2)cc1 [13d]	170.3 to 172.9 °C	0.01 ± 0.52%	92.27 ± 0.08%	32 ± 3.2%	99.93 ± 0.05%	-18.4 ± 2.15%	33.4 ± 1.97%	32.2 µM	10.5 µM	–	IC50 (Hela; Homo sapiens, HeLa): 17.4 µM
COC(=O)[C@@H]1CCCN1S(=O)(=O)c1ccc(-c2ccc(NC(=O)[C@H](C)N)cc2)cc1 [13c, Methyl (2S)-1-(4-{4-[(2S)-2-Aminopropionamido]phenyl}benzenesulfonyl)pyrrolidine-2-carboxylate]	155.3 to 157.6 °C	29.6 ± 0.48%	82.9 ± 2.04%	20 ± 2.83%	96.55 ± 0.22%	-3.69 ± 0.34%	72.3 ± 1.57%	10.7 µM	30.9 µM	43.7 µM	IC50 (Hela; Homo sapiens, HeLa): 20.6 µM
COC(=O)[C@H]1CCCN1S(=O)(=O)c1ccc(-c2ccc(NC(=O)[C@@H](C)N)nc2)cc1 [7e, Methyl (2R)-1-(4-{6-[(2R)-2-Aminopropionamido]pyridin-3-yl}benzenesulfonyl)pyrrolidine-2-carboxylate]	146 to 148.4 °C	-2.63 ± 2.86%	24.4 ± 0.79%	-0.89 ± 2.31%	17.8 ± 0.86%	-11.9 ± 1.69%	7.27 ± 0.41%	–	–	–	–
COC(=O)[C@H]1CCCN1S(=O)(=O)c1ccc(-c2ccc(NC(=O)[C@@H](C)N)cc2)cc1 [7b, (2R)-1-(4-{4-[(2R)-2-Aminopropionamido]phenyl}benzenesulfonyl)pyrrolidine-2-carboxylate Methyl Ester]	157.4 to 159.1 °C	-4.81 ± 3.62%	41.4 ± 1.25%	4.32 ± 1.35%	46.9 ± 1.33%	-10.9 ± 2.58%	2.44 ± 0.72%	–	–	–	–
O=C(CCCCCCC(=O)Nc1ccccc1)NO [SAHA, vorinostat, reference compound]	–	–	–	–	–	–	–	–	–	2.03 µM	–
COC(=O)[C@H]1CCCN1S(=O)(=O)c1ccc(-c2ccc(NC(=O)[C@H](C)N)cc2)cc1 [7c, Methyl (2R)-1-(4-{4-[(2S)-2-Aminopropionamido]phenyl}benzenesulfonyl)pyrrolidine-2-carboxylate]	155.1 to 158.3 °C	1.42 ± 0.97%	49.7 ± 1.35%	2.78 ± 0.7%	49.6 ± 0.82%	-13.5 ± 1.33%	8.63 ± 2.03%	–	–	–	–
COC(=O)[C@@H]1CCCN1S(=O)(=O)c1ccc(-c2ccc(NC(=O)[C@@H](C)N)nc2)cc1 [13e, Methyl (2S)-1-(4-{6-[(2R)-2-Aminopropionamido]pyridin-3-yl}benzenesulfonyl)pyrrolidine-2-carboxylate]	146.2 to 148.9 °C	5.5 ± 1.12%	94.89 ± 0.02%	17.43 ± 0.16%	99.98 ± 0.05%	-12.6 ± 1.59%	81.6 ± 1.09%	–	–	–	–
COC(=O)C1CCCN1S(=O)(=O)c1ccc(-c2ccc(NC(=O)CN)cc2)cc1 [13a, (2S)-Methyl 1-{4-[4-[4-(2-Aminoacetamido)phenyl]benzenesulfonyl}pyrrolidine-2-carboxylate]	–	63.1 ± 1.99%	99.89 ± 0.06%	59 ± 2.12%	99.25 ± 0.08%	98.74 ± 0.04%	99.68 ± 0.17%	–	–	–	IC50 (RPMI 8226; 72 h): 5.85 µM; IC50 (HL-60; 72 h): 7.23 µM; IC50 (Hela): 5.19 µM; CC50 (HL-7702): 27.5 µM
